≈ marks a conversion by molar mass, not a printed value.
Legend:
[1] = test system: 5.25M7 & PBMCs infected by 93UG065 (clade D, X4R5)
Procedure: (§1) Inhibition of fusion between PBMCs infected by primary HIV-1 strains (X4 and R5 viruses) with CEMx174 5.25 M7 cells, which express CD4 and both coreceptors, CXCR4 and CCR5, was determined by a luciferase assay. Briefly, 50 μl of compound at graded concentration in triplicate was incubated with equal volume of PHA-stimulated PBMCs (1×10^5/ml) infected by corresponding primary HIV-1 strains, respectively, for 7 days as described above. After incubation at 37° C. for 30 min, 100 μl of CEMx174 5.25 M7 cells (2×10^5) were added and incubated at 37° C. for three days. The cells were collected, washed, and lysed with the lysing reagent included in the luciferase kit (Promega, Corp., Madison, Wis.). Aliquots of cell lysates were transferred to 96-well flat-bottom luminometer plates (Costar, Corning Inc., Corning, N.Y.), followed by addition of luciferase substrate (Promega). The luciferase activity was measured in the Ultra 384 luminometer (Tecan).

[2] = test system: 5.25M7 & PBMCs infected by 92UG029 (clade A, X4)
Procedure: as §1

[3] = test system: 5.25M7 & PBMCs infected by 93TH051 (clade E, X4R5)
Procedure: as §1

[4] = test system: 5.25M7 & PBMCs infected by 93BR020 (clade F, X4R5)
Procedure: as §1

[5] = test system: 5.25M7 & PBMCs/SF162 (clade B, R5)
Procedure: as §1

[6] = test system: 5.25M7 & PBMCs infected by 93IN101 (clade C, R5)
Procedure: as §1

[7] = test system: 5.25M7 & PBMCs infected by CMU02 (clade E, R5)
Procedure: as §1

[8] = test system: 5.25M7 & PBMCs infected by BCF02 (Group O, R5)
Procedure: as §1

[9] = test system: 5.25M7 & PBMCs infected by 92UG657 (clade B, R5)
Procedure: as §1

MT-2 cells = settings: trypan blue, 2 hr
Procedure: Detection of in vitro cytotoxicity. The in vitro cytotoxicity of compounds for MT-2 cells was measured using trypan blue dye exclusion assay (41). Briefly, 100 μl of MT-2 cells (2×10^6/ml) were incubated with an equal volume of a compound diluted in culture media at graded concentrations at 37° C. for 2 hr. Ten microliters of cell suspension was transferred to a well of round-bottom plate and mixed with 10 μl of 0.04% trypan blue solution. The number of viable cells was counted using a hemocytometer under a microscope. The CC50 (the concentration for 50% cytotoxicity) values were calculated using the software Calcusyn (6).

[10] = biological target: gp41 six-helix bundle formed by N36 and C34-FITC (Human immunodeficiency virus type 1 group M subtype B, UniProt P04578); settings: 200 μg/ml; for gp41 six-helix bundle formation in FN-PAGE: added after N36 preincubated with C34-FITC; for gp41 six-helix bundle band in FN-PAGE: preincubated with N36 before addition of C34-FITC
Procedure: Fluorescence native polyacrylamide gel electrophoresis (FN-PAGE). FN-PAGE was performed as previously described (32). Briefly, 18% pre-cast Tris-Glycine gels and Novex X-Cell II Mini cell (Invitrogen, Carlsbad, Calif.) were used for native-PAGE. […] In the control, N36 was incubated with C34-FITC at 37° C. for 30 min before addition of the compounds. After incubation at 37° C. for another 30 min, the mixture was diluted in Tris-Glycine native sample buffer, then loaded to 10×1.0 mm wells. Gel electrophdrosis was carried out with 125 V constant voltage at room temperature for about 90 min in Tris-Glycine native running buffer. Immediately after electrophoresis, image of the fluorescence bands in the gel was taken by the FluorChem 8800 Imaging System (Alpha Innotech corp., San Leandro, Calif.) using a transillumination UV light source with excitation wavelength at 302 nm and a fluorescence filter with emission wavelength at 520 nm.

gp41 six-helix bundle formed by N36 and C34-FITC, sequence (P04578 546-581): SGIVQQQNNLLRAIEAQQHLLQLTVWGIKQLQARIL

| Compound | IC50 (μg/ml) for inhibition of cell-cell fusion [1] [µg/mL] | IC50 (μg/ml) for inhibition of cell-cell fusion [2] [µg/mL] | IC50 (μg/ml) for inhibition of cell-cell fusion [3] [µg/mL] | IC50 (μg/ml) for inhibition of cell-cell fusion [4] [µg/mL] | IC50 (μg/ml) for inhibition of cell-cell fusion [5] [µg/mL] | IC50 (μg/ml) for inhibition of cell-cell fusion [6] [µg/mL] | IC50 (μg/ml) for inhibition of cell-cell fusion [7] [µg/mL] | IC50 (μg/ml) for inhibition of cell-cell fusion [8] [µg/mL] | IC50 (μg/ml) for inhibition of cell-cell fusion [9] [µg/mL] | CC50 (MT-2 cells) [mg/L] | gp41 six-helix bundle formation in FN-PAGE [10] | gp41 six-helix bundle band in FN-PAGE [10] |
| --- | --- | --- | --- | --- | --- | --- | --- | --- | --- | --- | --- | --- |
| Cc1ccc(C)n1-c1ccc(C(=O)O)c(O)c1 [NB-2] | 6.07 ± 0.07 | 2.50 ± 0.02 | 1.76 ± 0.07 | 1.66 ± 0.07 | 4.86 ± 0.34 | 3.27 ± 0.18 | 8.14 ± 1.09 | 0.93 ± 0.57 | 6.64 ± 1.13 | 305.60 ± 5.04 (≈ 1320 µM) | not inhibited | the intensity of the upper bands were significantly decreased |
| O=C(O)c1cc(-n2cccc2)ccc1Cl [NB-64] | 20.77 ± 1.94 | 2.21 ± 0.56 | 12.72 ± 0.32 | 2.24 ± 0.31 | 20.86 ± 0.20 | 18.26 ± 0.01 | 4.89 ± 1.08 | 10.30 ± 5.90 | 39.00 ± 5.27 | >500 | not inhibited | the intensity of the upper bands were significantly decreased |

Source: patent US7241803B2, “Compounds for inhibition of HIV infection by blocking HIV entry” (New York Blood Center, priority 2002, dated 2007)
